Test results reported in article PMC6713165, “Identification of 1H-pyrazolo[3,4-b]pyridine derivatives as potent ALK-L1196M inhibitors” (Journal of Enzyme Inhibition and Medicinal Chemistry, 2019).
“And” between values parts separate entries of the source, which are not always exact repeats. Equal values may be shown once. Read-outs that look alike come from different tables or passages of the source.

Columns and labels:
ALK wt-TEL Ba/F3 cells [1] = assay: Anti-proliferation assay (CTG), ALK wt-TEL Ba/F3; assay type: cell-based; details: Mus musculus, BaF3
Description: (§1) ALK wt-TEL, ALK L1196M-TEL transformed Ba/F3 and H2228 cell lines were cultured in RPMI1640 (Welgene, # LM011-01). […] Parental Ba/F3 cells were cultured in RPMI1640 media supplemented with 10% foetal bovine serum and 1% penicillin/streptomycin solution in the presence of IL-3. The cells were maintained in a humidified atmosphere containing 5% CO2 at 37 °C.
(§2) Cells (ALK wt-TEL, ALK L1196M-TEL and Parental Ba/F3: 1 × 10^4, H2228: 5 × 10^3) were plated in 96 well tissue culture plates. Each compound was added to each well at 10 dose points of three-fold serial dilution in DMSO. After treatment with each compound for 72 h, CTG assay solution (Promega, # G7572) was added to each well.

[2] = target: IRK (insulin receptor kinase) (Homo sapiens, UniProt P06213); assay: Biochemical kinase assay, IRK
Description: (§3) Biochemical kinase assay was performed by methods previously reported. Kinase reactions of all test compounds except 10g were carried out at 10 µM ATP. Kinase reaction of 10g was performed at three different concentrations of ATP (10/50/100 µM).

[3] = Permeability assessment using Caco-2 cells; assay type: in vitro ADME, human; details: human
Description: (§4) Stock solutions (10 mM) of reference compounds and 10g were diluted to a concentration of 10 µM with the transport buffer (HBSS + 1%BSA) and the test compounds were applied to the apical or basolateral side of the cell monolayer. […] In addition, the efflux ratio of each compound was also determined. Reference compounds and 10g were quantified by LC-MS/MS analysis based on the peak area ratio of analyte/the internal standard.

Caco-2 cells = assay: Permeability assessment using Caco-2 cells; assay type: in vitro ADME, human
Description: as §4

Lyn = Lyn (Homo sapiens, UniProt P07948); assay: Biochemical kinase assay, Lyn
Description: as §3

[4] = tested on: ALK L1196M-TEL Ba/F3 cells; assay: Apoptosis analysis (annexin V-FITC/PI, FACS), ALK L1196M-TEL Ba/F3; assay type: cell-based
Description: (§5) After 24–48 h following compound treatment, cells were harvested and stained with annexin V (1:500 diluted in annexin V buffer) for 30 min and PI (1:200) solution for 30 min. 1 × 10^6 cells were analysed using flow cytometric analysis. For the cell cycle arrest analysis, cells were harvested by trypsinisation and fixed with 70% ethanol overnight at −20 °C. The next day, cells were harvested and washed with cold DPBS at 500 × g.

ALK-T1151-L1152insT = ALK-T1151-L1152insT (Homo sapiens, UniProt Q9UM73, INS1151T); assay: Radiometric biochemical kinase assay, ALK-T1151-L1152insT
Description: as §3

c-Src = c-Src (Homo sapiens, UniProt P12931); assay: Biochemical kinase assay, c-Src
Description: as §3

H2228 cells = assay: Cell cycle arrest analysis (PI, FACS), H2228; assay type: cell-based; details: H2228, 1 µM, 24 h, in words
Description: as §5, with “g. The cells were suspended in RNase/PI solution (Cell Signalling Technologies, # 4087).” for “g.”

ROS1 = ROS1 (Homo sapiens, UniProt P08922); assay: Biochemical kinase assay, ROS1
Description: as §3

Parental Ba/F3 cells = assay: Anti-proliferation assay (CTG), parental Ba/F3; assay type: cell-based; details: Mus musculus, BaF3, 72 h, with IL-3, mean ± SD of three independent experiments, read-out: GI50 Ba/F3 cell lines Parental
Description: as §1, §2

[5] = tested on: ALK L1196M-TEL Ba/F3 cells; assay: Anti-proliferation assay (CTG), ALK L1196M-TEL Ba/F3; assay type: cell-based
Description: as §1, §2

H2228 (EML4-ALK) cells = assay: Anti-proliferation assay (CTG), H2228; assay type: cell-based; details: Homo sapiens, NCI-H2228, 72 h, mean ± SD of three independent experiments
Description: as §1, §2

ALK-wt = ALK-wt (Homo sapiens, UniProt Q9UM73); assay: Radiometric biochemical kinase assay, ALK-wt
Description: as §3

ALK-F1174L = ALK-F1174L (Homo sapiens, UniProt Q9UM73, F1174L); assay: Radiometric biochemical kinase assay, ALK-F1174L
Description: as §3

ALK wt-TEL Ba/F3 cells [6] = assay: Apoptosis analysis (annexin V-FITC/PI, FACS), ALK wt-TEL Ba/F3; assay type: cell-based; details: ALK wt-TEL Ba/F3, 24 h, in words
Description: as §5

Chain of ALK-wt (Q9UM73 19-1620): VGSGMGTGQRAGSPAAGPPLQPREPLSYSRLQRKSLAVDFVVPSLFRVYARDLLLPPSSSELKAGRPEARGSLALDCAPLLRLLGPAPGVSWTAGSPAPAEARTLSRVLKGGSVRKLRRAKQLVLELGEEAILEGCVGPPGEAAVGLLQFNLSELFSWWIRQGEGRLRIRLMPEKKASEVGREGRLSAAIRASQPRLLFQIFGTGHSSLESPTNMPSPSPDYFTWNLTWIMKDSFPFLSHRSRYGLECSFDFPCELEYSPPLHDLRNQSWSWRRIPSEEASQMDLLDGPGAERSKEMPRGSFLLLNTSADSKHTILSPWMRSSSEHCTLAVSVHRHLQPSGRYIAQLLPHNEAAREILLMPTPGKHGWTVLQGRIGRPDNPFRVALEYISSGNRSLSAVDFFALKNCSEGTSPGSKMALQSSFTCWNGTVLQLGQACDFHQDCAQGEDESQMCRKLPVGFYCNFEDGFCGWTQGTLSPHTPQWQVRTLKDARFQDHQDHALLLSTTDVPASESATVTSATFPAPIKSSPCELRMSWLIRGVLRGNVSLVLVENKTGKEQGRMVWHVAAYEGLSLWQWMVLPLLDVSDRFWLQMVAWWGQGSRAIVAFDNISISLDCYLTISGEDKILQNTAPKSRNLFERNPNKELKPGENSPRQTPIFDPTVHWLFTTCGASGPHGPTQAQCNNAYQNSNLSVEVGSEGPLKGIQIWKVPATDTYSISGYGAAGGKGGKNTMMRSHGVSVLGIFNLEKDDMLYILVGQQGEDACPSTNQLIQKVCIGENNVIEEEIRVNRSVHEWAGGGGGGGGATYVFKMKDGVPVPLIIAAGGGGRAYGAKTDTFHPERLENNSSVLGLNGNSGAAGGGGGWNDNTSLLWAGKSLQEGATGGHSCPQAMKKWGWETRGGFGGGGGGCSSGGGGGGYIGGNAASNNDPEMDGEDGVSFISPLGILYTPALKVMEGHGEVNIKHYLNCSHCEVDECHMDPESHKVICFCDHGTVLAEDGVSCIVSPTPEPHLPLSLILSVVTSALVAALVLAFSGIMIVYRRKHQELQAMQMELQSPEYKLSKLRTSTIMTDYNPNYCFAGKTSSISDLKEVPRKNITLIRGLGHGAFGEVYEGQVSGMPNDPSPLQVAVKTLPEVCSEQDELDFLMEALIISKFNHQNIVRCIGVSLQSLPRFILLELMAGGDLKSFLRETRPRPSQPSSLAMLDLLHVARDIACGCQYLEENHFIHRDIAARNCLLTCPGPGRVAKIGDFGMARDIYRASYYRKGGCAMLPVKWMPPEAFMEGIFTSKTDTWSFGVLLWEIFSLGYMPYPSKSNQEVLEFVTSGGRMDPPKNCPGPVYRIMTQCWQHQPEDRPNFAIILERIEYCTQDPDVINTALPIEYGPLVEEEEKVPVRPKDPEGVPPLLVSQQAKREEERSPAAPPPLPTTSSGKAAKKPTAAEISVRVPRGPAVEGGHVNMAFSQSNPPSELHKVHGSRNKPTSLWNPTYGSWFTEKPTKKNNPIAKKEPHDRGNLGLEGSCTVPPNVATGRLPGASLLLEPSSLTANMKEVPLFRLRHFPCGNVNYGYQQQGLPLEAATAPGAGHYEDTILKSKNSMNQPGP
Chain of c-Src (P12931 whole entry): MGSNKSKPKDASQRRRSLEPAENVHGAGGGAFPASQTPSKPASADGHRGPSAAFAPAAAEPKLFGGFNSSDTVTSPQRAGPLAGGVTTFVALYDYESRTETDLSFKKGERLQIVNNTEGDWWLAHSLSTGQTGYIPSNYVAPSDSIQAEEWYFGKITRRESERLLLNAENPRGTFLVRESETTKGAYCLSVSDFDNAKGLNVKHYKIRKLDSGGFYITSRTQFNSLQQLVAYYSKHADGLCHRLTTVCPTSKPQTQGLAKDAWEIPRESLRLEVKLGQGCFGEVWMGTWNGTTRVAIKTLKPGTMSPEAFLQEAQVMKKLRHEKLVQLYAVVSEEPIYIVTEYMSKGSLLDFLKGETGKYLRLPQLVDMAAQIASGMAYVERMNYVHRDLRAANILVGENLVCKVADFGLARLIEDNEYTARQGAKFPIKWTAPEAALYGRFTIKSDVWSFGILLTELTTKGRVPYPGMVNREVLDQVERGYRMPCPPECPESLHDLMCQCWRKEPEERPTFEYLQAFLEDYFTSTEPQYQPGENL
Chain of IRK (insulin receptor kinase) (P06213 28-1382): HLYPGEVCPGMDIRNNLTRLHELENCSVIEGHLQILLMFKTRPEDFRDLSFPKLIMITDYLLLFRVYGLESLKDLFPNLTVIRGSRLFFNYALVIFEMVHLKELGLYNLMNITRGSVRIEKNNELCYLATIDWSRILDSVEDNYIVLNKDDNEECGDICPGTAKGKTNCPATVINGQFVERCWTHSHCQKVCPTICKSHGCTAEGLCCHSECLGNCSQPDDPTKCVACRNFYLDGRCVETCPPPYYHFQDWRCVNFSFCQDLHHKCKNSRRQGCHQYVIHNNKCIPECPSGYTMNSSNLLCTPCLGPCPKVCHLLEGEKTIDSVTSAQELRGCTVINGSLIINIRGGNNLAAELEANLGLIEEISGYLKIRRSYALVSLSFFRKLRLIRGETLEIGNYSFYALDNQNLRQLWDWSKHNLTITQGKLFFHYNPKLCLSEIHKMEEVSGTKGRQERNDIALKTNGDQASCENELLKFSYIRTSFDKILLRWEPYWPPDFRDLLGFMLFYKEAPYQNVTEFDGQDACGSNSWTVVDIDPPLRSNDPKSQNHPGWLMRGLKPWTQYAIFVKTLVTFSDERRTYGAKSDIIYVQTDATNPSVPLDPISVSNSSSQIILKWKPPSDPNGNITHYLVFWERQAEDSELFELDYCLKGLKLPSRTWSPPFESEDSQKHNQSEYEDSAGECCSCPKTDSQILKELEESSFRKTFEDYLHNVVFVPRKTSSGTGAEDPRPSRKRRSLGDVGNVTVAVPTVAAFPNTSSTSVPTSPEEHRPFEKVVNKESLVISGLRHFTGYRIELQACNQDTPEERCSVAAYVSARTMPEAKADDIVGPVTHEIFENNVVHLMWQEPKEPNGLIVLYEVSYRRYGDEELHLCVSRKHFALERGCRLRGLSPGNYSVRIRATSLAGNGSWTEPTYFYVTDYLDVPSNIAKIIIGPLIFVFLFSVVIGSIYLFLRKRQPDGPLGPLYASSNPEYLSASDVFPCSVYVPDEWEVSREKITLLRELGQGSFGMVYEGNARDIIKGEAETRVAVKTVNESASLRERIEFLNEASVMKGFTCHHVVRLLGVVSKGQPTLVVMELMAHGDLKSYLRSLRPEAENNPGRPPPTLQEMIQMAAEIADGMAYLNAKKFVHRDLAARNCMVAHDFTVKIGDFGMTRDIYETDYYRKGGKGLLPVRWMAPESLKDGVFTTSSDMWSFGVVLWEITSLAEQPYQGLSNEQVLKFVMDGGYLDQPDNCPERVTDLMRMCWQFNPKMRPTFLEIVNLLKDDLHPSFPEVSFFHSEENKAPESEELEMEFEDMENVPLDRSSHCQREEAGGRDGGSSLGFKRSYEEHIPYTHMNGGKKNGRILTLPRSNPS
Chain of Lyn (P07948 whole entry): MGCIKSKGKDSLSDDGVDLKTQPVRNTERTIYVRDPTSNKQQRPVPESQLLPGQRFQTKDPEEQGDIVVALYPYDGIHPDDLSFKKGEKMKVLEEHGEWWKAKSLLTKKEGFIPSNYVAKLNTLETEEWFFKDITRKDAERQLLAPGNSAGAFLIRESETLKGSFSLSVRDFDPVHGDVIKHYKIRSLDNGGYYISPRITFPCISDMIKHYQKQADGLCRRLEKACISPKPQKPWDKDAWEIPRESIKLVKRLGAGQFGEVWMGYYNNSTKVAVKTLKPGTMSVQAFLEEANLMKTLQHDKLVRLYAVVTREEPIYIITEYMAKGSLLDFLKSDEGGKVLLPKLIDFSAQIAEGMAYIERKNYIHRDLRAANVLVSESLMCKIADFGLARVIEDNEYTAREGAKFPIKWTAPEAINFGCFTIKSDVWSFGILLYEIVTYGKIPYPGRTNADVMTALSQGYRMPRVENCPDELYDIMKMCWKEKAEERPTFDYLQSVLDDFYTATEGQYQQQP
Chain of ALK-T1151-L1152insT (Q9UM73 with tags, fused parts or gaps INS1151T limits assumed): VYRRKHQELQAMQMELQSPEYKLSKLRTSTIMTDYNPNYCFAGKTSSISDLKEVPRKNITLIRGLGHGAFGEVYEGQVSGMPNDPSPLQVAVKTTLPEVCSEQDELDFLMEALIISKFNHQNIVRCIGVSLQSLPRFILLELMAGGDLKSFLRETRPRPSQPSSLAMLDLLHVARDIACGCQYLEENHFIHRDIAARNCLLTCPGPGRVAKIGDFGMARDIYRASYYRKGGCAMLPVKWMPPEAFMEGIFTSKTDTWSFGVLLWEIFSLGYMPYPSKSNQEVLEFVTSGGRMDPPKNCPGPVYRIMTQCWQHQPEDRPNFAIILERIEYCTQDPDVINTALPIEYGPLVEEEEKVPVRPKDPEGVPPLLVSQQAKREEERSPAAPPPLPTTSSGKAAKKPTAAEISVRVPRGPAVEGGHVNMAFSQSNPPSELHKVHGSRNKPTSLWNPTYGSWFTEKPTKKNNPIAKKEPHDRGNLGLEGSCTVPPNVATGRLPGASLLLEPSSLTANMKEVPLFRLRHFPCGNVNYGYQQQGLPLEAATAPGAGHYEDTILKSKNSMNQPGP
Chain of ALK-F1174L (Q9UM73 19-1620 F1174L): as the sequence (Q9UM73 19-1620) above, with F1156L counted along it

Question: Which GI50 (ALK wt-TEL Ba/F3 cells [1]; 72 h, CTG, mean ± SD of three independent experiments, read-out: GI50 Ba/F3 cell lines ALK wt-TEL) does the source give for `CN1CCN(c2ccc(C(=O)Nc3n[nH]c4ncc(S(=O)(=O)c5cccc(F)c5)cc34)cc2)CC1` [10g, N-(5-((3-Fluorophenyl)sulfonyl)-1H-pyrazolo[3,4-b]pyridin-3-yl)-4–(4-methylpiperazin-1-yl)benzamide] here?
Answer: 205 ± 60 nM

Question: And the GI50 (ALK wt-TEL Ba/F3 cells [1]; stated in text for both ALK-driven Ba/F3 lines (ALK wt-TEL and ALK L1196M-TEL), read-out: GI50 ALK-driven Ba/F3 cells)?
Answer: < 205 nM

Question: And the IC50 [2]?
Answer: 404 nM

Question: And the Papp A→B at 120 min, 10 µM ([3]; Caco-2, Caco-2, 10 µM, 120 min, 37 °C, HBSS + 1%BSA, read-out: Mean Papp A to B)?
Answer: 2.56 ×10⁻⁶ cm/s

Question: What about the recovery at 120 min, 10 µM ([3]; Caco-2, Caco-2, 10 µM, 120 min, read-out: Mean recovery % A to B) of the same molecule?
Answer: 74.2%

Question: What about the recovery at 120 min, 10 µM ([3]; Caco-2, Caco-2, 10 µM, 120 min, read-out: Mean recovery % B to A) of the same molecule?
Answer: 92.3%

Question: What about the Papp A→B at 120 min, 10 µM ([3]; Caco-2, Caco-2 permeability class from Papp (A to B), read-out: Rank Papp) of the same molecule?
Answer: 2.5 to 10 ×10⁻⁶ cm/s

Question: And the efflux ratio at 120 min, 10 µM ([3]; Caco-2, 10 µM, 120 min)?
Answer: 1.85

Question: What about the Papp B→A at 120 min, 10 µM ([3]; Caco-2, 10 µM, 120 min, 37 °C, HBSS + 1%BSA) of the same molecule?
Answer: 4.74 ×10⁻⁶ cm/s

Question: And the “Rank Papp” value (Caco-2 cells; Caco-2 permeability class from Papp (A to B))?
Answer: moderate

Question: What about the “Rank P-gp” value (Caco-2 cells; P-gp substrate status from efflux ratio) of the same molecule?
Answer: not a substrate

Question: And the IC50 (Lyn)?
Answer: 33 nM

Question: And the “number of apoptotic cells (FACS)” value ([4]; ALK L1196M-TEL Ba/F3, 24 h, in words)?
Answer: increases the number of apoptotic cells in a dose-dependent manner

Question: And the “apoptosis induction compared with crizotinib” value ([4]; ALK L1196M-TEL Ba/F3, in words)?
Answer: more effectively than does crizotinib

Question: And the IC50 (ALK-T1151-L1152insT)?
Answer: 6.19 nM

Question: What about the IC50 (c-Src) of the same molecule?
Answer: 7 nM

Question: What about the cell cycle arrest (H2228 cells) of the same molecule?
Answer: significant enhancement of G1-S arrest

Question: And the IC50 (ROS1)?
Answer: < 1 nM

Question: And the GI50 (Parental Ba/F3 cells)?
Answer: 3500 ± 1130 nM

Question: And the GI50 ([5]; Mus musculus, BaF3, 72 h, CTG, mean ± SD of three independent experiments, read-out: GI50 Ba/F3 cell lines ALKL1196M-TEL)?
Answer: 129 ± 20 nM

Question: And the “differential cytotoxicity against ALK-L1196M Ba/F3 cells vs. parental Ba/F3 cells compared with crizotinib” value ([5]; in words)?
Answer: much more favourable differential cytotoxicity

Question: And the GI50 (H2228 (EML4-ALK) cells)?
Answer: 219 ± 50 nM

Question: What about the “change in IC50 against ALK-wt on 10-fold increase in ATP concentration” value (ALK-wt; 10 vs 100 µM ATP) of the same molecule?
Answer: 50 fold

Question: And the IC50 (ALK-wt; IC50 ALK-wt [ATP](50 μM), 50 μM ATP)?
Answer: 17.3 nM

Question: And the IC50 (ALK-wt; IC50 ALK-wt [ATP](100 μM), 100 μM ATP)?
Answer: 24 nM and 24.9 nM

Question: What about the IC50 (ALK-wt; radiometric kinase assay, 10 µM ATP, read-out: IC50 ALK-wt) of the same molecule?
Answer: < 0.5 nM

Question: What about the IC50 (ALK-F1174L) of the same molecule?
Answer: 8.17 nM

Question: And the “number of apoptotic cells (FACS)” value (ALK wt-TEL Ba/F3 cells [6])?
Answer: increases the number of apoptotic cells in a dose-dependent manner
